As usually defined, the MIC is the least concentration at which growth counts as inhibited.

The source of these data is article PMC10454396 (International Journal of Molecular Sciences, 2023).

≈ marks a conversion by molar mass, not a printed value. Read-outs that look alike come from different tables or passages of the source.

Experiment [1] has as its system Staphylococcus aureus Newman mCherry. In words: MIC, broth microdilution, mCherry-expressing S. aureus Newman. Type of experiment: cell-based. The method, then: (§1) Cefazolin was obtained from Acros Organics. Ciprofloxacin hydrochloride, linezolid and vancomycin hydrochloride were obtained from Sigma-Aldrich (St. Louis, MO, USA). Tetracycline hydrochloride was obtained from Alfa Aesar. Sorangicin A was provided by HZI, Braunschweig. Stock solutions were prepared in Milli-Q water or dimethyl sulfoxide (DMSO, Sigma-Aldrich). Minimum inhibitory concentrations (MICs) were determined in cation-adjusted Mueller-Hinton broth (MHB2) using the broth microdilution method as recommended by the Clinical and Laboratory Standards Institute (CLSI). The MIC was defined as the lowest concentration of the antibiotic causing complete inhibition of visible growth of the microorganism (CLSI, 2017).
(§2) 1. In vitro characterization of mCherry expressing Staphylococcus aureus Newman
(§3) 1.1 Minimum inhibitory concentration
(§4) Table S1. Antibiotic susceptibility profile of Staphylococcus aureus Newman. WT: wild type. […]
In general terms: Broth dilution looks for growth in wells or tubes with falling amounts of substance.

Experiment [2] relates to Staphylococcus aureus Newman WT. In words: MIC, broth microdilution, S. aureus Newman wild type. It is filed as cell-based. The method, then: as §1, §2, §3, §4
Experiment [3] has as its system mCherry-expressing S. aureus Newman. Briefly: Zebrafish embryo model of S. aureus yolk infection, antibiotic treatment efficacy. Type of experiment: in vivo, Staphylococcus aureus. The method, then: With the aim to study the in vivo efficacy of drugs, 30 hpf zebrafish embryos were infected with 50 CFU of mCherry-expressing S. aureus Newman. Embryos were then left to recover from injection for two hours and subsequently treated with various reference antibiotics. Antibiotic treatment was performed via bath water immersion as well as via microinjection into the yolk (local treatment) and the caudal vein (systemic treatment) to study whether differences in in vivo activity exist between the three administration routes. Survival was assessed daily until 120 hpf. Additionally, the infection was visualized and quantified by means of fluorescence microscopy at 24 h post treatment (hpt). At the end of every experiment, living embryos (and dead embryos, if possible) were homogenized to determine the remaining bacterial count. Five approved antibiotics from different classes were assessed in vivo. The chosen drugs ought to differ in physicochemical properties, such as molecular weight and polarity, in order to detect a pattern between successful administration routes and the physicochemical properties of the drug. Prior to efficacy assessment, drug-mediated toxicity in zebrafish embryos was investigated using the same administration routes (Figure S3). For microinjection, a fixed dose of 20 to 30 mg/kg was used for each antibiotic. The concentration for bath water immersion was based on the minimum inhibitory concentration (MIC) and the maximum tolerated concentration (MTC) of the drug, whereby it is generally recommended to use 50- to 100-fold the antibacterial MIC to see a positive effect.
Pulled glass capillaries for microinjection (Table S2) were prepared using a micropipette puller (P-1000, Sutter Instrument). Dechorionated and anaesthetized embryos were infected with 50 colony-forming units (CFU) of mCherry-expressing S. aureus Newman by microinjection into the yolk sac at 30 hpf. In order to confirm bacterial numbers, an equal volume of bacterial cells was ejected onto Tryptic Soy Agar (TSA) supplemented with 10 µg/mL chloramphenicol before and after the injection. Antibiotic treatment was performed two hours post infection (hpi) via three different administration routes, namely bath water immersion and microinjection into the yolk sac as well as the caudal vein (CV). The infection procedure and treatment of infected embryos are described in details in the supplementary materials (Table S3).
Embryos were transferred individually to microcentrifuge tubes and washed at least three times with sterile PBS. 200 µL of sterile PBS were added and embryos were mechanically homogenized using a micropestle (Carl Roth, Karlsruhe, Germany). 800 µL of sterile PBS were added to reach a final volume of 1 mL. The homogenates were diluted and plated on tryptic soy agar (TSA). CFU counts were determined after 24 h of incubation at 37 °C.
Embryos were placed in a black 96-well plate (Falcon; Thermo Fisher, Dreieich, Germany) and cryo-anaesthetized by submersion into ice water. Images for quantitative fluorescence analysis were acquired using the following equipment: a fluorescence stereo microscope (M205 FA, Leica Microsystems, Wetzlar, Germany) in combination with a fluorescence illuminator (X-Cite, 200DC, Excelitas Technologies, Waltham, MA, USA) and a microscope camera (DFC7000 T, Leica Microsystems). Quantification of fluorescence was performed using Fiji ImageJ version 2.1.0. Fluorescent Integrated Density (FID) was determined by counting the number of pixels with fluorescence intensity greater than the threshold (10) and multiplying the count with its mean intensity. For confocal imaging, embryos were anaesthetized through immersion in tricaine (945 µM, Sigma-Aldrich) and immobilized in 1.2% low-melting agarose in a flat-bottom 96-well plate. Confocal images and time-lapse series were acquired using the Celldiscoverer 7 with LSM 900 (Zeiss) together with the 5×/0.35 Plan-APOCHROMAT objective.
2. […]

[4] abbreviates: Staphylococcus aureus, S. aureus Newman WT, MHB2 broth microdilution, read-out: MIC.
Setting [5] is: S. aureus Newman mCherry, MHB2 broth microdilution.
Where [6] appears, read: S. aureus Newman WT, MHB2 broth microdilution.
[7] abbreviates: bath water immersion 50-100x MIC.
Setting [8] is: caudal vein microinjection 20-30 mg/kg, 2 hpi.
Setting [9] is: yolk microinjection 20-30 mg/kg, 2 hpi.

With `O=C(N[C@H](CO)[C@H](O)c1ccc([N+](=O)[O-])cc1)C(Cl)Cl` [chloramphenicol], the minimum inhibitory concentration (MIC) in experiment [1] (Staphylococcus aureus, NEWMAN) came to 64 µg/mL (≈ 198 µM); in experiment [2] (setting [4]), 8 µg/mL (≈ 24.8 µM).
In the case of `NC[C@H]1O[C@H](O[C@H]2[C@H](O)[C@@H](O[C@H]3O[C@H](CO)[C@@H](O)[C@H](N)[C@H]3O)[C@H](N)C[C@@H]2N)[C@H](O)[C@@H](O)[C@@H]1O` [kanamycin], the MIC in experiment [1] (setting [5]) and in experiment [2] (setting [6]) was 4 µg/mL (≈ 8.26 µM) throughout.
Regarding teicoplanin, the minimal inhibitory concentration (MIC) in experiment [1] (setting [5]) and in experiment [2] (setting [6]) was 1 µg/mL throughout.
Take `NC[C@H]1O[C@H](O[C@H]2[C@H](O)[C@@H](O[C@H]3O[C@H](CO)[C@@H](O)[C@H](N)[C@H]3O)[C@H](N)C[C@@H]2N)[C@H](N)C[C@@H]1O` [tobramycin]: the minimal inhibitory concentration (MIC) in experiment [2] (setting [4]) was determined as 0.5 µg/mL (≈ 1.07 µM).
On the same count and under the same terms, in the case of `CCCCCCCCCC(=O)N[C@@H](Cc1c[nH]c2ccccc12)C(=O)N[C@H](CC(N)=O)C(=O)N[C@@H](CC(=O)O)C(=O)N[C@@H]1C(=O)NCC(=O)N[C@@H](CCCN)C(=O)N[C@@H](CC(=O)O)C(=O)N[C@H](C)C(=O)N[C@@H](CC(=O)O)C(=O)NCC(=O)N[C@H](CO)C(=O)N[C@@H]([C@H](C)CC(=O)O)C(=O)N[C@@H](CC(=O)c2ccccc2N)C(=O)O[C@@H]1C` [daptomycin] it was 2 µg/mL (≈ 1.23 µM); in that of `CC[C@H]1OC(=O)[C@H](C)[C@@H](O[C@H]2C[C@@](C)(OC)[C@@H](O)[C@H](C)O2)[C@H](C)[C@@H](O[C@@H]2O[C@H](C)C[C@H](N(C)C)[C@H]2O)[C@](C)(OC)C[C@@H](C)C(=O)[C@H](C)[C@@H](O)[C@]1(C)O` [clarithromycin], 0.25 µg/mL (≈ 0.334 µM).
Turning to `CC1(C)S[C@@H]2[C@H](NC(=O)[C@H](N)c3ccccc3)C(=O)N2[C@H]1C(=O)O` [ampicillin], the MIC in experiment [1] (Staphylococcus aureus, NEWMAN) came out at 0.5 µg/mL (≈ 1.43 µM); in experiment [2] (setting [4]), 0.125 µg/mL (≈ 0.358 µM).
For the compound `CN[C@H](CC(C)C)C(=O)N[C@H]1C(=O)N[C@@H](CC(N)=O)C(=O)N[C@H]2C(=O)N[C@H]3C(=O)N[C@H](C(=O)N[C@H](C(=O)O)c4cc(O)cc(O)c4-c4cc3ccc4O)[C@H](O)c3ccc(c(Cl)c3)Oc3cc2cc(c3O[C@@H]2O[C@H](CO)[C@@H](O)[C@H](O)[C@H]2O[C@H]2C[C@](C)(N)[C@H](O)[C@H](C)O2)Oc2ccc(cc2Cl)[C@H]1O` [vancomycin], the “bacterial fluorescence (FID) at 24 hpt” value in experiment [3] (bath water immersion) is reported as “no reduction in bacterial fluorescence”; in experiment [3] (caudal vein microinjection) it was “no reduction in bacterial fluorescence”; in experiment [3] (yolk microinjection), “no development of fluorescence”. The figures for the “effect on survival of infected embryos” value in experiment [3] (setting [7]), in experiment [3] (setting [8]) and in experiment [3] (setting [9]) were “No increased survival”, “No increased survival” and “prevented embryo death”, respectively. Moreover, the survival in experiment [3] (yolk microinjection (local treatment) 2 hpi, 50 CFU yolk infection) was found to be 90%. The “colonies recovered at the end of the experiment” value in experiment [3] (yolk-treated embryos) is given as 0–2500 CFU. The MIC worked out at 2 µg/mL (≈ 1.38 µM) in experiment [1] (Staphylococcus aureus, NEWMAN) and 2 µg/mL (≈ 1.38 µM) in experiment [2] (Staphylococcus aureus, NEWMAN).
As for `CN(C)[C@@H]1C(O)=C(C(N)=O)C(=O)[C@@]2(O)C(O)=C3C(=O)c4c(O)cccc4[C@@](C)(O)[C@H]3C[C@@H]12` [tetracycline], the results for the “bacterial fluorescence (FID) at 24 hpt” value in experiment [3] (bath water immersion), in experiment [3] (caudal vein microinjection) and in experiment [3] (yolk microinjection) were “FID values equal to the positive control”, “No fluorescence was observed” and “No fluorescence was observed”, respectively. For the same compound, the entries for the “effect on survival of infected embryos” value in experiment [3] (setting [7]), in experiment [3] (setting [8]) and in experiment [3] (setting [9]) were “did not show any effect”, “exhibit treatment efficacy” and “exhibit treatment efficacy”, respectively. Further, the “bacteria recovered (CFU plating) at 120 hpf” value (“bacteria recovered” below) in experiment [3] (caudal vein microinjection) and in experiment [3] (yolk microinjection) was “no colonies were recovered” in each case. Moreover, the MIC in experiment [2] (setting [4]) worked out at 0.25 µg/mL (≈ 0.563 µM).
As for `CC[C@H]1OC(=O)[C@H](C)[C@@H](O[C@H]2C[C@@](C)(OC)[C@@H](O)[C@H](C)O2)[C@H](C)[C@@H](O[C@@H]2O[C@H](C)C[C@H](N(C)C)[C@H]2O)[C@](C)(O)C[C@@H](C)C(=O)[C@H](C)[C@@H](O)[C@]1(C)O` [erythromycin], the MIC in experiment [2] (setting [4]) came out at 0.25 µg/mL (≈ 0.341 µM).
Take `O=C(O)c1cn(C2CC2)c2cc(N3CCNCC3)c(F)cc2c1=O` [ciprofloxacin]: the “bacterial fluorescence (FID) at 24 hpt” value in experiment [3] (bath water immersion) is “a decrease in FID values”; in experiment [3] (caudal vein microinjection) it was “No fluorescence was observed”; in experiment [3] (yolk microinjection) it was “No fluorescence was observed”. Moreover, the “effect on survival of infected embryos” value in experiment [3] (setting [7]) is on record as “slightly prolong survival”; in experiment [3] (setting [8]), “exhibit treatment efficacy”; in experiment [3] (setting [9]), “exhibit treatment efficacy”. For the same compound, the “embryos died due to infection” value in experiment [3] (bath water immersion, 50 CFU yolk infection) is “more than 80%”. The “bacteria recovered” value in experiment [3] (caudal vein microinjection) and in experiment [3] (yolk microinjection) was “no colonies were recovered” each time. The MIC in experiment [2] (setting [4]) was 0.25 µg/mL (≈ 0.754 µM).
As to `CNC(C)C1CCC(N)C(OC2C(N)CC(N)C(OC3OCC(C)(O)C(NC)C3O)C2O)O1` (centres unmarked) [gentamicin], the MIC in experiment [2] (setting [4]) came out at 0.5 µg/mL (≈ 1.05 µM).
As to `Cc1nnc(SCC2=C(C(=O)O)N3C(=O)[C@@H](NC(=O)Cn4cnnn4)[C@H]3SC2)s1` [cefazolin], the “bacterial fluorescence (FID) at 24 hpt” value in experiment [3] (bath water immersion) is given as “FID values equal to the positive control”; in experiment [3] (caudal vein microinjection), “No fluorescence was observed”; in experiment [3] (yolk microinjection), “No fluorescence was observed”. The “effect on survival of infected embryos” value in experiment [3] (setting [7]) is reported as “did not show any effect”; in experiment [3] (setting [8]), “exhibit treatment efficacy”; in experiment [3] (setting [9]) it was “exhibit treatment efficacy”. Also, the “bacteria recovered” value in experiment [3] (caudal vein microinjection) and in experiment [3] (yolk microinjection) was “no colonies were recovered” throughout.
